Source: publication PMC6701825, “Antiproliferative and Antimigratory Effects of a Novel YAP–TEAD Interaction Inhibitor Identified Using in Silico Molecular Docking” (Journal of Medicinal Chemistry, 2019)
Entries after “also recorded” stand apart in the source; their conditions may differ. Read-outs that look alike come from different tables or passages of the source.

Experiments:
CCN1 promoter [1] = test: CCN1-luciferase reporter in HeLa cells; format: cell-based, human; conditions: 6 h, indicated concentrations
Source text: (§1) Activation of TEAD transcription factors in response to YAP binding induces the expression of many genes that encode proteins known to be involved in promoting cell proliferation and migration (see Supplement Figure 14). The best characterized TEAD target genes associated with the promotion of cell proliferation and migration are CCN1 and CTGF.[39],[59],[60] […] We therefore tested whether CPD3 inhibited the promoter activity of known TEAD target genes, CCN1 and CTGF, in the HeLa transformed cell line and primary rat VSMCs (RaVSMCs). Cells were transfected with plasmids expressing bioluminescent firefly luciferase reporter genes under the control of either the CCN1 or CTGF promoter regions. […] As both CCN1 and CTGF are classical TEAD target genes, this is consistent with the inhibition of TEAD activity by CPD3.
(§2) TNT1-minP reporter containing the Troponin-T minimal promoter was generated by digesting 8xGTIIC-luciferase plasmid (Addgene #34615) with Kpn1 and BglII to remove the TEAD elements, followed by blunt end re-ligation. A 2.177 kb fragment of the human CCN1 promoter containing two proximal TEAD elements (Hg19;chr1:86044316–chr1:86046493) was described previously[39] and cloned into pGL4-luciferase (Promega). […]

nano-luciferase enzyme = target: T1, nano-luciferase enzyme (Oplophorus gracilirostris, UniProt Q9GV45, A31E/A60N/A81I/F95D/I117V/K70R/L54V/L99Q/M102K/N193R/P142E/Q151K/Q38R/Q45L/V71I/Y165I); test: Direct inhibition of nanoluciferase enzyme in conditioned media; format: biochemical; conditions: conditioned media containing nano-luciferase, indicated concentrations
T1 construct: heterologous secretion signal (sec-Nluc) (N); expressed in transfected cells; probably the TEAD-NLUC HeLa reporter cells
Description: Cell conditioned media containing nano-luciferase enzyme was incubated with the indicated
concentrations of CPD3 (A) or CPD3.1 (B) and nano-luciferase activity assayed.
(§3) (1 picture or pasted object on this page, not shown here)

[2] = tested on: housekeeping genes PGK1, TBP, GAPDH, 36B4; test: qRT-PCR of TEAD-independent housekeeping gene mRNA in RaVSMCs; format: cell-based, rat
Description: Figure 9 Compound 3.1 inhibits TEAD target gene expression, cell proliferation, and cell migration in RaVSMCs. RaVSMCs stably transduced with TEAD-NLUC (A) or transiently transfected with CCN1-LUC or CTGF-LUC were treated with the indicated concentrations of compound 3.1 for 6 hr. Cell conditioned media (A) or cell lysates (B−C) were assayed for nanoluciferase or fire-fly luciferase activity, respectively. VSMC were treated with 60 μM compound 3.1 for 6 h (n = 3). Total RNA was analyzed for mRNA levels of TEAD-target genes (D) or constitutive housekeeping genes (E) by qRT-PCR. VSMC were treated with indicated concentrations of compound 3.1 for 16 hr (n = 4). Total cell lysates were analyzed for CCN1 protein expression by Western blotting (F). […] RaVSMCs (I) or HuVSMC (J) were treated with indicated concentrations of compound 3.1 and cell migration quantified using IncuCyte real time migration assay (n = 4).
Quantitative reverse transcription (RT)-PCR: quantification of mRNA was performed by RT-qPCR, as described previously.[39] Total RNA was extracted using Ambion PureLink kits (Thermo Fisher) and reverse-transcribed using QuantiTect RT kit (Qiagen) and random primers. Quantitative PCR was performed using Roche SYBR Green using a Qiagen Roto-GeneRotor-Gene Q PCR machine (20 seconds@95 °C; 20 seconds @62 °C; 20 seconds@72 °C). […]

[3] = tested on: TEAD target genes (CCN1, CTGF, PAI1, THBS, MAYDM, MYOC); test: qRT-PCR of TEAD target gene mRNA in RaVSMCs; format: cell-based, rat
Description: Figure 9 Compound 3.1 inhibits TEAD target gene expression, cell proliferation, and cell migration in RaVSMCs. RaVSMCs stably transduced with TEAD-NLUC (A) or transiently transfected with CCN1-LUC or CTGF-LUC were treated with the indicated concentrations of compound 3.1 for 6 hr. Cell conditioned media (A) or cell lysates (B−C) were assayed for nanoluciferase or fire-fly luciferase activity, respectively. VSMC were treated with 60 μM compound 3.1 for 6 h (n = 3). Total RNA was analyzed for mRNA levels of TEAD-target genes (D) or constitutive housekeeping genes (E) by qRT-PCR. VSMC were treated with indicated concentrations of compound 3.1 for 16 hr (n = 4). Total cell lysates were analyzed for CCN1 protein expression by Western blotting (F). RaVSMCs (G) or HuVSMC (H) were treated with indicated concentrations of compound 3.1 for 18 h followed by labeling in 10 μM EdU for a further 6 h (n = 4). RaVSMCs (I) or HuVSMC (J) were treated with indicated concentrations of compound 3.1 and cell migration quantified using IncuCyte real time migration assay (n = 4).
Quantitative reverse transcription (RT)-PCR: quantification of mRNA was performed by RT-qPCR, as described previously.[39] Total RNA was extracted using Ambion PureLink kits (Thermo Fisher) and reverse-transcribed using QuantiTect RT kit (Qiagen) and random primers. Quantitative PCR was performed using Roche SYBR Green using a Qiagen Roto-GeneRotor-Gene Q PCR machine (20 seconds@95 °C; 20 seconds @62 °C; 20 seconds@72 °C). Data were normalized to nonstimulated controls. Primer sequences are described in Supplement Table 2.
Supplement Figure 11: Dose repose analysis of CPD3.1 on CCN1, CTGF and THBS
RaVSMC were treated with the indicated doses of CPD3.1 and total RNA analysed for
levels of steady state mRNA of CCN1, CTGF and THBS mRNA using qRT-PCR (n=4).
as §3

CTGF promoter = test: CTGF-luciferase reporter in HeLa cells; format: cell-based, human; conditions: 6 h, indicated concentrations
Source text: as §1, §2

[4] = tested on: TEAD-independent minimal TNT1 gene promoter; test: Minimal TNT1 promoter-luciferase (minP-LUC) reporter in HeLa cells; format: cell-based, human; conditions: 6 h
Source text: as §1, §2

CCN1 promoter [5] = test: CCN1-luciferase reporter in RaVSMCs; format: cell-based, rat
Source text: as §1
Figure 9 Compound 3.1 inhibits TEAD target gene expression, cell proliferation, and cell migration in RaVSMCs. […] Total RNA was analyzed for mRNA levels of TEAD-target genes (D) or constitutive housekeeping genes (E) by qRT-PCR. […] Total cell lysates were analyzed for CCN1 protein expression by Western blotting (F). […] RaVSMCs (I) or HuVSMC (J) were treated with indicated concentrations of compound 3.1 and cell migration quantified using IncuCyte real time migration assay (n = 4). […]

HeLa cells = test: Live/dead cell viability assay (ethidium homodimer-1) in HeLa cells; format: cell-based
Description: Cell viability was quantified using the live/dead viability/cytotoxicity assay standard protocol (Invitrogen). Maximum cell death was quantified by incubating cells for 10 min with 0.1% Triton-X, followed by incubation with 0.4 μM ethidium homodimer-1 for an additional 10 min. Fluorescence was measured using a GloMax Discover multiplate reader (Promega).
Supplement Figure 3: Effect of shortlisted compounds on cell viability
(§4) HeLa cells transduced with TEAD-NLUC reporter were treated with indicated compounds at 100 µM for 6 hours (n=3). Cell viability was quantified by staining with 0.4 µM ethidium homodimer-1 and ethidium homodimer-1 uptake quantified by measuring fluorescence at 645 nm using a Glomax Discover plate reader.
as §3
as §4, with “Supplement Figure 6: Effect of CPD3, CPD3.1, CPD3.2 and CPD 3.3 on cell viability HeLa” for “HeLa”, “concentrations of CPD3, CPD3.1, CPD3.2 and CPD 3.3” for “compounds at 100 µM”, “plate” for “plate reader.”

[6] = RaVSMC dose-response, Supplement Figure 11

T1 sequence (Q9GV45 other isoform, or with tags, fused parts or gaps with the stated changes): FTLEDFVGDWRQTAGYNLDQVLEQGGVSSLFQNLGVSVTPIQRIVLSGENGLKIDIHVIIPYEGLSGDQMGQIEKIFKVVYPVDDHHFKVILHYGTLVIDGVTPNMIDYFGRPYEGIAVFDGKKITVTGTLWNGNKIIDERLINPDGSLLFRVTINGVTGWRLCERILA

| SMILES | CCN1-luciferase reporter gene activity (CCN1 promoter [1]) | direct inhibitory effect on NLUC enzymatic activity (nano-luciferase enzyme) | steady-state mRNA levels of housekeeping genes PGK1, TBP, GAPDH, 36B4 ([2]; VSMC, 60 μM, 6 h) | concentration giving inhibition of CCN1 mRNA [3, 6] | concentration giving inhibition of CTGF mRNA [3, 6] | concentration giving inhibition of THBS mRNA [3, 6] | steady-state mRNA levels of TEAD target genes (CCN1, CTGF, PAI1, THBS, MAYDM, MYOC) ([3]; VSMC, 60 μM, 6 h) | CTGF-luciferase reporter gene activity (CTGF promoter) | activity of TEAD-independent minimal TNT1 promoter (minP-LUC) [4] | IC50 (CCN1 promoter [5]; Rattus norvegicus, 6 hr, read-out: IC50, CCN1-LUC (as printed in Figure 9B)) | effect on cell viability (HeLa cells) | steady-state mRNA level of housekeeping gene 36B4 ([2]; RaVSMCs, Supplement Figure 4) | steady-state mRNA levels of endogenous CCN1 and CTGF genes ([3]; RaVSMCs, Supplement Figure 4) | CCN1-luciferase reporter gene activity (CCN1 promoter [5]; 6 h, indicated concentrations) | effect on cell viability (HeLa cells; 100 µM, 6 hours, HeLa TEAD-NLUC cells) | effect on cell viability (HeLa cells; indicated concentrations, 6 hours, HeLa (Supplement Figure 6)) |
| --- | --- | --- | --- | --- | --- | --- | --- | --- | --- | --- | --- | --- | --- | --- | --- | --- |
| Cc1ccc2c(c1)c1c3n2CCNC3CCC1 (centres unmarked) [CPD3.1] | dose-dependent inhibition | do not non-specifically inhibit nano-luciferase; also recorded: without having any direct inhibitory effect on NLUC activity | unaffected | 20 µM | 40 µM | 10 µM | significantly inhibited | dose-dependent inhibition | without affecting expression | 48 µM | without affecting cell viability | – | – | – | – | – |
| Cc1ccc2c(c1)c1c3n2CCN(CC(O)CN2CCN(C(=O)c4ccco4)CC2)C3CCC1 (centres unmarked) [CPD3] | strong and significant dose-dependent inhibition | do not non-specifically inhibit nano-luciferase; also recorded: did not affect cell viability (Supplement Figure 6) or have any direct inhibitory effect on NLUC enzymatic activity | – | – | – | – | – | strong and significant dose-dependent inhibition | not inhibited by any concentration | – | – | but not the TEAD-independent housekeeping gene 36B4 | significantly inhibited | strong and significant dose-dependent inhibition | without significantly affecting cell viability | did not affect cell viability |
